Measurements published in patent US20230287048A1, “COMPOSITION AND KIT FOR REMOVING LIPOPOLYSACCHARIDE” (HLB SCIENCE INC., priority 2020, published 2023).
pKd: −log10 of the molar value. Where a SMILES comes first, the peptide text is derived from it. Where no end group is shown, it is not given here. [ ]: non-standard residue; d: D form.

What was measured:
[1] = Binding affinity (Kd) between peptide and LPS by isothermal titration calorimeter (ITC); details: for pKd: 0.2 mM peptide in cell, 2 mM LPS in syringe, PBS, read-out: Kd (calculated by ITC)
Method: FP1 is denoted as wild type (WT), and peptides having point mutations for various parts in WT were prepared (FP3, FP5, FP6, and FP9). To increase the interaction with LPS in the residue sequence of FP3, peptides were designed based on an FP3 and LPS-binding model (FP12-NH2 and FP13-NH2), and non-natural amino acid and amino acid isomers (allomeric D-type amino acids) were additionally introduced, thereby designing peptides (allD FP12-NH2, allD FP13-NH2, allD FP-13-9a, allD FP-13-9w, allD FP-13-9k, and allD FP13-NH2 (AcOH)). In addition, an N-terminal PEGylated peptide (PEG-allD FP13-NH2(AcOH)) was additionally designed and synthesized by Anygen Co. Ltd., and then supplied. Using each of the provided peptides, lipopolysaccharide (LPS), and an isothermal titration calorimeter (ITC) for measuring binding affinity (Kd), binding affinity with LPS was confirmed.
Specifically, a method of analyzing binding affinity (Kd) between a peptide and LPS is as follows.
The binding affinity was measured using Malvern MicroCal PEAQ-ITC cell equipment, and to confirm the interaction with LPS, pre-treatment was performed as follows. The volume and shape of a cell sample were 300 μL, coin-shaped, and fixed-in-place; and the syringe rotation rate was 1,200 rpm; and temperatures were 30° C., 35° C., and 25° C.
Before the test, LPS and the peptide were diluted with PBS in advance, thereby obtaining 2 mM LPS and a 0.2 mM peptide. 300 μL of the peptide was put into cells in an ITC device, which had been washed, and 40 μL of LPS was contained in a syringe. Measurement conditions for ITC (temperature, the number of injections) were set, the syringe was inserted into the cell, and the ITC measurement began. When the measurement was completed, the Kd values of LPS and the peptide were calculated through analysis.

[2] = LPS removal rates of reagents prepared with various peptides; details: for Removal Rate: peptide conjugated to CNBr-activated agarose
Method: To confirm an LPS removal rate by preparing a reagent for removing LPS using peptides other than FP12-NH2, LPS removal rates were compared using the peptides listed in Table 11.
Reagents for removing LPS were prepared in one dose by the method of Example 2-2 for each peptide.
More specifically, the reagent for removing LPS was aliquoted by Lot at 2 mL into 5 mL tubes. After centrifugation, the supernatant was removed with a syringe, 2 mL of PBS was added and mixed up and down and centrifuged. […] The mixture was stirred for 2 hours at room temperature. After centrifugation, the supernatant was transferred to a new tube.

Row | Compound | LPS binding affinity compared with FP1 (wild type, WT) [1] | pKd [1] | Removal Rate ([2]; feeding LPS 10,000 EU/ml) [%] | Removal Rate ([2]; feeding LPS 100,000 EU/ml) [%] | LPS removal rate, comparison of all polypeptides ([2]; peptides of Table 11 conjugated to CNBr-activated agarose)
1 | RLRVKLRRYLR-NH2 [FP12-NH2, RLRVKLRRYLR-NH2] | the same as or higher than FP1 | 6.62 | 99.9 | 79.4 | the highest removal rate
2 | CC(C)C[C@@H](NC(=O)[C@H](N)CCCNC(=N)N)C(=O)N[C@H](CCCNC(=N)N)C(=O)N[C@@H](C(=O)N[C@H](CCCCN)C(=O)N[C@H](CC(C)C)C(=O)N[C@H](CCCNC(=N)N)C(=O)N[C@H](CCCNC(=N)N)C(=O)N[C@H](Cc1ccc(O)cc1)C(=O)N[C@H](CC(C)C)C(=O)N[C@H](CCCNC(=N)N)C(N)=O)C(C)C [allD FP12-NH2, RLRVKLRRYLR-NH2] (H-[dR][dL][dR][dV][dK][dL][dR][dR][dY][dL][dR]-NH2; N-terminus assumed) | the same as or higher than FP1 | 4.58 | – | 58.6 | –
3 | CC(C)C[C@@H](NC(=O)[C@H](N)CCCCN)C(=O)N[C@H](CCCNC(=N)N)C(=O)N[C@@H](C(=O)N[C@H](CCCCN)C(=O)N[C@H](CC(C)C)C(=O)N[C@H](CCCNC(=N)N)C(=O)N[C@H](CCCNC(=N)N)C(=O)N[C@H](CCCCN)C(=O)N[C@H](CC(C)C)C(=O)N[C@H](CCCNC(=N)N)C(N)=O)C(C)C [allD-FP-13-9k-NH2, Klrvklrrklr-NH2] (H-[dK][dL][dR][dV][dK][dL][dR][dR][dK][dL][dR]-NH2; N-terminus assumed) | the same as or higher than FP1 | 5.70 | – | – | –
4 | LRLGVEAKRYLR [FP5, LRLGVEAKRYLR] | the same as or higher than FP1 | 3.07 | – | – | –
5 | KLGVEALRYLD [FP9, KLGVEALRYLD] | the same as or higher than FP1 | 3.49 | – | – | –
6 | KLGVEAKRYLR [FP3, KLGVEAKRYLR] | the same as or higher than FP1 | 3.48 | – | – | –
7 | CC(C)C[C@@H](NC(=O)[C@H](N)CCCCN)C(=O)N[C@H](CCCNC(=N)N)C(=O)N[C@@H](C(=O)N[C@H](CCCCN)C(=O)N[C@H](CC(C)C)C(=O)N[C@H](CCCNC(=N)N)C(=O)N[C@H](CCCNC(=N)N)C(=O)N[C@H](Cc1ccc(O)cc1)C(=O)N[C@H](CC(C)C)C(=O)N[C@H](CCCNC(=N)N)C(N)=O)C(C)C [allD FP13-NH2, KLRVKLRRYLR-NH2] (H-[dK][dL][dR][dV][dK][dL][dR][dR][dY][dL][dR]-NH2; N-terminus assumed) | the same as or higher than FP1 | 5.32 | – | 57.7 | –
8 | KLRVKLRRYLR-NH2 [FP13-NH2, KLRVKLRRYLR-NH2] | the same as or higher than FP1 | 3.93 | 94.8 | – | –
9 | CC(C)C[C@@H](NC(=O)[C@H](N)CCCCN)C(=O)N[C@H](CCCNC(=N)N)C(=O)N[C@@H](C(=O)N[C@H](CCCCN)C(=O)N[C@H](CC(C)C)C(=O)N[C@H](CCCNC(=N)N)C(=O)N[C@H](CCCNC(=N)N)C(=O)N[C@H](Cc1c[nH]c2ccccc12)C(=O)N[C@H](CC(C)C)C(=O)N[C@H](CCCNC(=N)N)C(N)=O)C(C)C [allD-FP-13-9w-NH2, Klrvklrrwlr-NH2] (H-[dK][dL][dR][dV][dK][dL][dR][dR][dW][dL][dR]-NH2; N-terminus assumed) | the same as or higher than FP1 | 4.76 | – | – | –
10 | CC(C)C[C@@H](NC(=O)[C@H](N)CCCCN)C(=O)N[C@H](CCCNC(=N)N)C(=O)N[C@@H](C(=O)N[C@H](CCCCN)C(=O)N[C@H](CC(C)C)C(=O)N[C@H](CCCNC(=N)N)C(=O)N[C@H](CCCNC(=N)N)C(=O)N[C@H](Cc1ccc(O)cc1)C(=O)N[C@H](CC(C)C)C(=O)N[C@H](CCCNC(=N)N)C(N)=O)C(C)C [allD-FP-13-NH2 (AcOH), KLRVKLRRYLR-NH2] (H-[dK][dL][dR][dV][dK][dL][dR][dR][dY][dL][dR]-NH2; N-terminus assumed) | the same as or higher than FP1 | 4.71 | – | – | –
11 | LRLGVELKRYLR [FP6, LRLGVELKRYLR] | the same as or higher than FP1 | 4.95 | – | – | –
12 | KLGVEAKRYLD [FP1(WT), KLGVEAKRYLD, reference compound] | – | 3.62 | – | – | –
